Results on 24 molecules are retold here after PubChem BioAssay AID248 (DTP/NCI, 2004).

The experiment relates to L1210 leukemia ip in BDF1 mice, survival T/C. The experiment is described as follows: NCI In Vivo Anticancer Drug Screen. Data for tumor model L1210 Leukemia (intraperitoneal) in B6D2F1 (BDF1) mice. The note with it: endpoint: mean survival time, higher = longer survival. The procedure, abridged:
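Tumor cells were implanted, animals were treated, and survival was followed. The result divides the treated measurement by the vehicle-control measurement.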

[1] abbreviates: dose: 100.0 mg/kg/injection, schedule: Q01DX009 (ip), vehicle: Klucel (hydroxypropylcellulose) (HPC).
[2] abbreviates: dose: 100.0 mg/kg/injection, schedule: Q01DX009 (ip), vehicle: saline.
[3] abbreviates: dose: 200.0 mg/kg/injection, schedule: Q01DX009 (ip), vehicle: saline.
[4] abbreviates: dose: 12.5 mg/kg/injection, schedule: Q01DX009 (ip), vehicle: saline.
[5] abbreviates: dose: 25.0 mg/kg/injection, schedule: Q01DX009 (ip), vehicle: saline.
Where [6] appears, read: dose: 50.0 mg/kg/injection, schedule: Q01DX009 (ip), vehicle: saline.
[7] abbreviates: dose: 200.0 mg/kg/injection, schedule: Q01DX001 (ip), vehicle: saline with Tween-80.
[8] abbreviates: dose: 400.0 mg/kg/injection, schedule: Q01DX001 (ip), vehicle: saline with Tween-80.
The mark [9] stands for this setting: dose: 200.0 mg/kg/injection, schedule: Q01DX009 (ip), vehicle: Klucel (hydroxypropylcellulose) (HPC).
Where [10] appears, read: dose: 400.0 mg/kg/injection, schedule: Q01DX009 (ip), vehicle: Klucel (hydroxypropylcellulose) (HPC).

Where “and” joins values, the source holds several entries; their conditions need not be identical. Equal values may be shown once. Inconclusive results and toxic doses are left out.

Take `NCC(=O)NC(Cc1c[nH]c2ccccc12)C(=O)O` (stereo unspecified): the T/C reads like this: (dose: 100.0 mg/kg/injection, schedule: Q01DX001 (ip), vehicle: acetone) 97 % of control; (dose: 200.0 mg/kg/injection, schedule: Q01DX001 (ip), vehicle: acetone) 98 % of control; (dose: 400.0 mg/kg/injection, schedule: Q01DX001 (ip), vehicle: acetone) 92 % of control.

Regarding `CC1C(C(C)(C)C)N1C` (stereo unspecified), the T/C is 108 % of control (dose: 100.0 mg/kg/injection, schedule: Q04DX003 (ip), vehicle: Klucel (hydroxypropylcellulose) (HPC)) and 110 % of control (dose: 200.0 mg/kg/injection, schedule: Q04DX003 (ip), vehicle: Klucel (hydroxypropylcellulose) (HPC)).

Turning to `O=C(N/N=C/c1cccc2ccccc12)c1cccnc1`, the T/C under setting [1] is 101 % of control.

Regarding `CC(=O)CC(Cl)(C(F)(F)F)C(F)(F)F`, the T/C (dose: 50.0 mg/kg/injection, schedule: Q04DX003 (ip), vehicle: saline with Tween-80) is 100 % of control; the T/C (dose: 100.0 mg/kg/injection, schedule: Q04DX003 (ip), vehicle: saline with Tween-80) was 100 % of control; the T/C (dose: 200.0 mg/kg/injection, schedule: Q04DX003 (ip), vehicle: saline with Tween-80) was 86 % of control; the T/C (dose: 400.0 mg/kg/injection, schedule: Q04DX003 (ip), vehicle: saline with Tween-80) is 88 % of control.

As for `O=C(/C=C\c1ccc(C(=O)Nc2ccc(C3=NCCCN3)cc2)cc1)Nc1ccc(C2=NCCCN2)cc1`, the T/C was 121 % of control (dose: 0.25 mg/kg/injection, schedule: Q01DX Z (ip), vehicle: water); 183 % of control (dose: 0.75 mg/kg/injection, schedule: Q01DX Z (ip), vehicle: water); 220 % of control (dose: 1.0 mg/kg/injection, schedule: Q01DX Z (ip), vehicle: water); 203 % of control (dose: 1.25 mg/kg/injection, schedule: Q01DX Z (ip), vehicle: water); 123 % of control (dose: 10.5 mg/kg/injection, schedule: Q01DX Z (ip), vehicle: water); 101 % of control (dose: 50.0 mg/kg/injection, schedule: Q01DX Z (oral), vehicle: water). Further, the T/C is 93 % of control (dose: 100.0 mg/kg/injection, schedule: Q01DX Z (oral), vehicle: water) and 114 % of control (dose: 200.0 mg/kg/injection, schedule: Q01DX Z (oral), vehicle: water).

As for `CCCCOP(=O)(OCCCC)O/C(C)=C(\C)OP(=O)(OCCCC)OCCCC`, the T/C runs as follows: (dose: 87.5 mg/kg/injection, schedule: Q01DX009 (ip), vehicle: carboxymethylcellulose (CMC)) 92 % of control; (dose: 175.0 mg/kg/injection, schedule: Q01DX009 (ip), vehicle: carboxymethylcellulose (CMC)) 98 % of control.

Turning to `COC(=O)/C=C(/CC(=O)OC)Nc1ccc(OC)cc1`, the T/C (dose: 100.0 mg/kg/injection, schedule: Q01DX001 (ip), vehicle: other) was 101 % of control; the T/C (dose: 200.0 mg/kg/injection, schedule: Q01DX001 (ip), vehicle: other) is 101 % of control; the T/C (dose: 400.0 mg/kg/injection, schedule: Q01DX001 (ip), vehicle: other) was 108 % of control.

As to `COc1ccccc1CNc1ncnc2nc[nH]c12`, the T/C by setting is: (dose: 100.0 mg/kg/injection, schedule: Q04DX003 (ip), vehicle: acetone) 97 % of control; (dose: 200.0 mg/kg/injection, schedule: Q04DX003 (ip), vehicle: acetone) 94 % of control; (dose: 400.0 mg/kg/injection, schedule: Q04DX003 (ip), vehicle: acetone) 107 % of control.

Take `Cn1c2c(c(=O)n(C)c1=O)NC1(N2)C(=O)Nc2ccccc21` (stereo unspecified): the T/C runs as follows: (dose: 100.0 mg/kg/injection, schedule: Q01DX001 (ip), vehicle: saline) 101 % of control; (dose: 200.0 mg/kg/injection, schedule: Q01DX001 (ip), vehicle: saline) 98 % of control; (dose: 400.0 mg/kg/injection, schedule: Q01DX001 (ip), vehicle: saline) 101 % of control.

As for `NCc1ccc(Cl)cc1Cl`, the T/C was 103 % of control under setting [2] and 108 % of control under setting [3].

Regarding `Nc1nc(N)c(-c2cccc(Cl)c2)c(CBr)n1`, the T/C under setting [4] is 101 % of control, the T/C under setting [5] is 102 % of control and the T/C under setting [6] was 104 % of control.

On to `OCCOCCOCCN1CCN(C(c2ccccc2)c2ccc(Cl)cc2)CC1` (stereo unspecified), for which the T/C is, setting by setting: under setting [4], 95 % of control; under setting [5], 100 % of control; under setting [6], 101 % of control; under setting [2], 95 % of control; under setting [3], 91 % of control.

For `O=C(NCCCl)NC1CCC(C(=O)O)CC1` (stereo unspecified), the T/C is, setting by setting: (dose: 100.0 mg/kg/injection, schedule: Q01DX001 (ip), vehicle: saline with Tween-80) 97 % of control; under setting [7], 100 % of control; under setting [8], 94 % of control.

As to `CC(=O)O/C=C1\CC2C3CC=C4CC(OC(C)=O)CCC4(C)C3CCC2(C)C1=O` (stereo unspecified), the T/C runs as follows: under setting [7], 90 % of control; under setting [8], 90 % of control.

As for `C=C(C)CC(O)CCCCC` (stereo unspecified), the T/C was 98 % of control (dose: 100.0 mg/kg/injection, schedule: Q04DX002 (ip), vehicle: saline); 102 % of control (dose: 200.0 mg/kg/injection, schedule: Q04DX002 (ip), vehicle: saline); 98 % of control (dose: 400.0 mg/kg/injection, schedule: Q04DX002 (ip), vehicle: saline).

As for `COc1ccc([N+](=O)[O-])cc1NC(=O)Nc1ccc(SC)cc1`, the T/C (dose: 50.0 mg/kg/injection, schedule: Q01DX009 (ip), vehicle: Klucel (hydroxypropylcellulose) (HPC)) is 90 % of control; the T/C under setting [1] is 89 % of control; the T/C under setting [9] is 90 % of control and 92 % of control; the T/C under setting [10] was 98 % of control.

Consider `O=c1cc(C(F)(F)F)[nH]c2ccccc12`, for which the T/C by setting is: (dose: 25.0 mg/kg/injection, schedule: Q04DX002 (ip), vehicle: Klucel (hydroxypropylcellulose) (HPC)) 106 % of control; (dose: 50.0 mg/kg/injection, schedule: Q04DX002 (ip), vehicle: Klucel (hydroxypropylcellulose) (HPC)) 98 % of control.

With `O=C(O)C1(c2ccccc2)OCCO1`, the T/C by setting is: (dose: 100.0 mg/kg/injection, schedule: Q01DX009 (ip), vehicle: saline with Tween-80) 95 % of control; (dose: 200.0 mg/kg/injection, schedule: Q01DX009 (ip), vehicle: saline with Tween-80) 94 % of control; (dose: 400.0 mg/kg/injection, schedule: Q01DX009 (ip), vehicle: saline with Tween-80) 95 % of control.

Regarding `Cc1ccc(C(C)C)c(OCC2C(=O)C3CCN2CC3)c1` (stereo unspecified), the T/C was 101 % of control (dose: 12.5 mg/kg/injection, schedule: Q04DX003 (ip), vehicle: Klucel (hydroxypropylcellulose) (HPC)); 101 % of control (dose: 25.0 mg/kg/injection, schedule: Q04DX003 (ip), vehicle: Klucel (hydroxypropylcellulose) (HPC)); 95 % of control (dose: 50.0 mg/kg/injection, schedule: Q04DX003 (ip), vehicle: Klucel (hydroxypropylcellulose) (HPC)).

With `CCCC[Si](C)(C)C`, the T/C was 103 % of control (dose: 100.0 mg/kg/injection, schedule: Q01DX001 (ip), vehicle: carboxymethylcellulose (CMC)); 95 % of control (dose: 200.0 mg/kg/injection, schedule: Q01DX001 (ip), vehicle: carboxymethylcellulose (CMC)); 103 % of control (dose: 400.0 mg/kg/injection, schedule: Q01DX001 (ip), vehicle: carboxymethylcellulose (CMC)).

Take `CC(C)C(NCCNC(C(C)C)C(C)C)C(C)C`: the T/C under setting [6] was 106 % of control, the T/C under setting [2] is 102 % of control and the T/C under setting [3] is 106 % of control.

As for `CC(C)CC(N=C(NC(CC(C)C)C(=O)O)c1ccccc1)C(=O)O` (stereo unspecified), the T/C is 108 % of control under setting [1], 105 % of control under setting [9] and 95 % of control under setting [10].

In the case of `CCCC(O)(CCC)CC1=NC(C)(C)CO1`, the T/C is 87 % of control (dose: 100.0 mg/kg/injection, schedule: Q04DX003 (ip), vehicle: saline sonified); 98 % of control (dose: 200.0 mg/kg/injection, schedule: Q04DX003 (ip), vehicle: saline sonified); 95 % of control (dose: 400.0 mg/kg/injection, schedule: Q04DX003 (ip), vehicle: saline sonified).

Consider `C=CCn1cnc(=N)c2[nH]cnc21`, for which the T/C was 94 % of control under setting [6]; 87 % of control under setting [2]; 90 % of control (dose: 100.0 mg/kg/injection, schedule: Q04DX003 (ip), vehicle: saline); 93 % of control under setting [3]; 94 % of control (dose: 200.0 mg/kg/injection, schedule: Q04DX003 (ip), vehicle: saline).
